Test results: US12076436B2, “Bacterial ferment of Lactobacillus species” (Symrise AG, priority 2021, dated 2024)

Experiments:
[1] = tested on: MatTek EpiDerm 3D reconstituted skin models; test: MTT viability of the 3D skin models; assay type: cell-based, human; conditions: MTT assay at end of experiment; dexamethasone at 50 μM
Method: (§1) To assess the effect of the bacterial ferment according to the invention on the secretion levels of IL8, reconstituted 3D skin models (EpiDerm™, MatTek) were used. After a short acclimation phase (daily medium changes), the models were switched to hydrocortisone-free medium, and test compounds were added topically to the reconstituted models. 50 μM dexamethasone was used as positive control, PBS served as negative control in the experiment. After 72 h incubation at 37° C. 5% CO2, the 3D models were washed with PBS and subsequently, an inflammatory response was stimulated by addition of 1 μg/ml Ma in the medium for approx. 24 h. Supernatants were collected after this phase and the IL8 concentration in these supernatants was determined using an ELISA kit (Human […] DuoSet ELISA, R&D Systems). To assess potential toxic effects of the test compounds on the 3D models, a standard MTT assay was carried out to assess viability of the 3D models at the end of the experiment.

Interleukin-8 (IL8) = test: IL8 secretion by EpiDerm 3D reconstituted skin models after IL1a stimulation (ELISA); assay type: cell-based, human; conditions: supernatants; 72 h topical treatment, then 1 μg/ml IL1a approx. 24 h; triplicates; dexamethasone at 50 μM
Method: as §1

Lactobacillus cultures = test: Reduction of Lactobacillus viability by treatment with lactic acid (plating of serial dilutions); assay type: cell-based

Structure (SMILES)	Viability (% vs stimulated control) [1]	IL-8 concentration [pg/ml] ± SEM (Interleukin-8 (IL8))	Lactobacillus count (log cfu/ml) (Lactobacillus cultures; 2 % (w/v) lactic acid, 37° C., 12 h)	Lactobacillus count (log cfu/ml) (Lactobacillus cultures; 2.8 % (w/v) lactic acid, 37° C., 12 h)	Lactobacillus count (log cfu/ml) (Lactobacillus cultures; 3 % (w/v) lactic acid, 37° C., 12 h)	Lactobacillus count (log cfu/ml) (Lactobacillus cultures; 3.4 % (w/v) lactic acid, 37° C., 12 h)	Lactobacillus count (log cfu/ml) (Lactobacillus cultures; 3.6 % (w/v) lactic acid, 37° C., 12 h)	Lactobacillus count (log cfu/ml) (Lactobacillus cultures; 4 % (w/v) lactic acid, 37° C., 12 h)	Lactobacillus count (log cfu/ml) (Lactobacillus cultures; 4.4 % (w/v) lactic acid, 37° C., 12 h)	Lactobacillus count (log cfu/ml) (Lactobacillus cultures; 4.8 % (w/v) lactic acid, 37° C., 12 h)	Lactobacillus count (log cfu/ml) (Lactobacillus cultures; 5 % (w/v) lactic acid, 37° C., 12 h)	Lactobacillus count (log cfu/ml) (Lactobacillus cultures; 5.4 % (w/v) lactic acid, 37° C., 12 h)	Lactobacillus count (log cfu/ml) (Lactobacillus cultures; 6 % (w/v) lactic acid, 37° C., 12 h)	Lactobacillus count (log cfu/ml) (Lactobacillus cultures; 6.8 % (w/v) lactic acid, 37° C., 12 h)	lactic acid concentration range of optimal reduction of Lactobacillus count (Lactobacillus cultures; 37° C., 12 h)	reduction in bacterial count by short pH shock with lactic acid (Lactobacillus cultures; step c of the method, bacterial ferment supernatant)
C[C@@H]1C[C@H]2[C@@H]3CCC4=CC(=O)C=C[C@]4(C)[C@@]3(F)[C@@H](O)C[C@]2(C)[C@@]1(O)C(=O)CO [Dexamethasone, dexamethasone]	90 % vs stimulated control	1225 ± 18.61 pg/mL	–	–	–	–	–	–	–	–	–	–	–	–	–	–
CC(O)C(=O)O (stereo not shown) [Lactic Acid, lactic acid]	–	–	7.54 log cfu/ml	7.08 log cfu/ml	5.45 log cfu/ml	4.72 log cfu/ml	5.09 log cfu/ml	3.52 log cfu/ml	3.60 log cfu/ml	3.00 log cfu/ml	1.00 log cfu/ml	1.38 log cfu/ml	1.95 log cfu/ml	1.70 log cfu/ml	ca. 5 % (w/v)	at least 9 order
